Experiments:
Type in all cases: in vivo
[1] = system: chronic mild stress-induced depressive model mice; assay: Spontaneous alternation behavior test (Y-maze test) in chronic mild stress-induced depressive model mice
Procedure: The same operation as in the above Test Example 7 was conducted to prepare chronic mild stress-induced depressive model mice (n=8 to 12). During that time, the compound of the present invention dissolved in PBS or in a PBS solvent containing DMSO, etc. was orally administered once daily for three weeks and, after that, evaluation for learning and memorizing behaviors was conducted by means of a spontaneous alternation behavior test (Y-maze test). Thus, an animal was placed at the front end of any arm in the Y-maze and allowed to freely walk in the maze for ten minutes, the arms into which the animal entered were successively recorded and the entry numbers of the animal into each arm within a measuring time (total arm entries) and the combined entry numbers into continuously different three arms (alternating behavior numbers) were checked. The alternating behavior rate (%) was calculated by the following expression and the spontaneous alternating behavior was evaluated as an index of short-term memory. Incidentally, the test of significance was conducted by a one-way ANOVA, Tukey's Multiple Comparison Test. Alternating behavior rate (%)=(Alternating behavior numbers)/(Total arm entries−2)×100

[2] = system: paclitaxel-induced peripheral nerve disorder rats; assay: von Frey test in paclitaxel-induced peripheral nerve disorder rats; conditions: Rattus norvegicus, ip; single intraperitoneal dose of 300 μ/kg; higher of the thresholds after 1 hour and 5 hours; normal threshold 15; read-out: Recovery rate of 50% reaction threshold value (%)
Outline: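 Male SD rats (six weeks, n=6/group) got paclitaxel 2 mg/kg i.p. every other day ×4. On days 18–25 or 20–27, test drug was given i.p. as a single […] dose. Von Frey up-down 50% thresholds (right hind paw) were taken pre-dose and at 1, 5, 24 h. Recovery rate used the higher 1/5 h value and a normal threshold of 15.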

[3] = system: chronic mild stress-induced depression model mice; assay: Tail suspension test in chronic mild stress-induced depression model mice; conditions: control 103.18±15.96 seconds
Procedure: Female ddY strain mice of seven weeks age (n=8 to 12) were (A) subjected to forced swimming for 15 minutes and then to normal breeding for two clays, (B) subjected to breeding in an inclined cage for two days and then to normal breeding for one day, (C) subjected to breeding for one day where the floor mat was made wet and then to normal breeding for one day and (D) subjected to breeding for one day using a cage which was rotated at the rate of 180 rotations/minute and then to normal breeding for one clay. Further, (B) to (D) were repeated for two times and stress was loaded for three weeks in total to prepare chronic mild stress-induced depression model mice. During that time, the compound of the present invention dissolved in PBS or in a PBS solvent containing DMSO, etc. was orally administered once daily for three weeks and, after that, the suppressive effect for depressive symptom was evaluated by means of a tail suspension test. Thus, the area which was 1 cm from the tip of the tail of a mouse was grasped with hand and kept at the height of 10 cm from the floor, an observation was conducted for six minutes and the length of immobility time which is an index for the depressive symptom was measured. Incidentally, the test of significance was carried out by a one-way ANOVA, Tukey's Multiple Comparison Test.

[4] = system: chronic mild stress-induced depressive model mice; assay: Elevated plus maze test in chronic mild stress-induced depressive model mice; conditions: 1,500 μg/kg orally once daily for three weeks; control 25.37±4.13 seconds
Procedure: The same operation as in the above Test Example 7 was conducted to prepare chronic mild stress-induced depressive model mice (n=8 to 12). During that time, the compound of the present invention dissolved in PBS or in a PBS solvent containing DMSO, etc. was orally administered once daily for three weeks and, after that, the suppressive effect for anxiety symptom was evaluated by means of an elevated plus maze test. Thus, time when the mouse stayed in an open arm of the elevated plus maze and the frequency (motility amount) of coming in and out of the mouse for both open arm and closed arm were measured. When the anxiety symptom was stronger, the staying time in the open arm was shorter. At that time, it is confirmed that there is no difference in the frequencies for coming in and out the arm between the cases where the stress is and is not loaded. Incidentally, the test for significance was carried out by a one-way ANOVA, Tukey's Multiple Comparison Test.

[5] = system: Male ddY strain mice loaded with forced swimming stress; assay: Suppressive effect for depressive symptom as a result of stress loading (forced swimming); conditions: 100 μg/kg body weight intraperitoneally every day, thirteenth day after stress loading, versus PBS control
Procedure: Male ddY strain mice of seven weeks age were loaded, as the stress, with forced swimming of 6 minutes every day for 2 weeks and the evaluation of suppressive effect for depression symptom was conducted. Thus, as from the initiation of loading the stress, the compound 1 dissolved in 0.1% DMSO was intraperitoneally administered every day in a dose of 100 μg/kg body weight and the immobility time of the mice upon the forced swimming was measured (n=5). As a control, a phosphate-buffered physiological saline (PBS) was intraperitoneally administered to the mice during two weeks and the immobility time was measured (n=4). The cases to which no stress was loaded were also administered with each of the compound 1 and the phosphate buffered saline (PBS) as same as in the cases to which the stress was loaded. Incidentally the test of significance was conducted by means of a two-way ANOVA, Bonferroni test.

SMILES	inhibition in vivo at 0.3 mg/kg [2] [%]	staying time in an open arm (elevated plus maze) [4] [s]	other results
CCCCCCC/C=C/C(=O)NCCN(C)C [Compound 36, (E)-N-2-(dimethylamino)ethyl dec-2-enamide]	72.1	–	alternating behavior rate ([1]; 1,500 μg/kg orally once daily for three weeks, control 61.76±2.01%): 71.52±2.50%
CCCCCCC/C=C/C(=O)NCCN(CC)CC [Compound 37, (E)-N-2-(diethylamino)ethyl dec-2-enamide]	73.1	–	–
CCCCCCC/C=C/C(=O)OCCN(CC)CC [Compound 6, (E)-2-(diethylamino)ethyl dec-2-enoate]	–	53.57 ± 7.00	immobility time (tail suspension test) ([3]; 1,500 orally once daily for three weeks): 80.67 ± 23.94 s; alternating behavior rate ([1]; 300 μg/kg orally once daily for three weeks, control 60.21±2.39%): 75.40±3.22%
CCCCCCC/C=C/C(=O)OCCN(C)C [Compound 1, (E)-2-(dimethylamino)ethyl dec-2-enoate]	48.3	–	immobility time upon forced swimming [5]: significantly shortened the immobility time
CCCCCCC/C=C/C(=O)SCCN(C)C [Compound 55, (E)-S-2-(dimethylamino)ethyl dec-2-enethioate]	45.4	47.24 ± 7.52	immobility time (tail suspension test) ([3]; 1,500 μg/kg orally once daily for three weeks): 63.72 ± 10.13 s

Source: US8987486B2, “Trans-2-decenoic acid derivative and pharmaceutical agent containing the same” (Nagoya Industrial Science Research Institute, priority 2010, dated 2015)
